*1 amine or outer side, *2 acyl side, *3 side chain or, on linkers, in order; H or OH if unused. Where a SMILES comes first, the peptide text is derived from it. Side-chain parts run from the residue outwards. [ ]: non-standard residue; d: D form. The star is where a group is joined. DOTA = O=C(O)CN1CCN(CC(=O)O)CCN(CC(=O)*)CCN(CC(=O)O)CC1; NH(2-(imidazol-4-yl)ethyl) = c1ncc(CCN*)[nH]1; Suc = O=C(CCC(=O)[*:2])[*:1]
Key:
Parameters in all cases: species or system nude mice
[1] = test system: GW39 human colon tumor xenografts; test: in vivo; conditions: mouse
Description: (§1) The bispecific antibody I-125-hMN-14×679-F(ab′)2 (anti-CEA×anti-HSG, radiolabeled with iodine-125 as a tracer radionuclide) was injected into nude mice bearing GW39 human colon tumor xenografts. Twenty-four hours later, the Ga-67-IMP 241 peptide, prepared according to the method described in Example # 4, was injected. At specified times post-injection, five animals per time-point were sacrificed and tissues collected and counted for both I-125 and Ga-67 radioactivity, using dual energy windows for each respective radionuclide. Additionally, biodistribution of Ga-67-IMP 241 given alone, without bsAb pretargeting is shown in Table 3 (four animals per group in this series). In each Table, the data is presented in terms of percent injected dose per gram of tissue (± standard deviation). Additionally, the biodistribution data for I-125-hMN-14×679-F(ab′)2 and Ga-67-IMP 241, from the same experiment, is reported in terms of tumor-to non-tumor ratio (T/NT) (Tables 4 & 5, for 1–125 and Ga-67, respectively).

in vivo = conditions: nude, mouse, total radioactivity
Description: as §1

[2] = test system: GW39 human colon tumor xenografts; conditions: mouse, in vivo
Description: as §1

[3] = Tumor-to-tissue ratio Lg. Intestine
[4] = Tumor-to-tissue ratio Sm. Intestine

- Tumor-to-tissue ratio Blood [1]: above 6:1
- Tumor-to-tissue ratio Kidney [1]: ~3.5:1
- tissue to tissue ratio at 1 h (in vivo; Tumor-to-tissue ratio Blood): 1.7 ± 0.8
- tissue to tissue ratio at 2 h (in vivo; Tumor-to-tissue ratio Blood): 6.1 ± 5
- tissue to tissue ratio at 3 h (in vivo; Tumor-to-tissue ratio Blood): 8.5 ± 9.5
- tissue to tissue ratio at 4 h (in vivo; Tumor-to-tissue ratio Blood): 8.7 ± 4.6
- tissue to tissue ratio at 6 h (in vivo; Tumor-to-tissue ratio Blood): 12.1 ± 8
- tissue to tissue ratio at 1 h (in vivo; Tumor-to-tissue ratio Bone): 11.5 ± 11
- tissue to tissue ratio at 2 h (in vivo; Tumor-to-tissue ratio Bone): 24.6 ± 15.1
- tissue to tissue ratio at 3 h (in vivo; Tumor-to-tissue ratio Bone): 17.8 ± 13.7
- tissue to tissue ratio at 4 h (in vivo; Tumor-to-tissue ratio Bone): 18.3 ± 3.1
- tissue to tissue ratio at 6 h (in vivo; Tumor-to-tissue ratio Bone): 53 ± 41.7
- tissue to tissue ratio at 1 h (in vivo; Tumor-to-tissue ratio Kidney): 2.3 ± 1.6
- tissue to tissue ratio at 2 h (in vivo; Tumor-to-tissue ratio Kidney): 3.5 ± 2.2
- tissue to tissue ratio at 3 h (in vivo; Tumor-to-tissue ratio Kidney): 2.4 ± 1.8
- tissue to tissue ratio at 4 h (in vivo; Tumor-to-tissue ratio Kidney): 3.1 ± 1.1
- tissue to tissue ratio at 6 h (in vivo; Tumor-to-tissue ratio Kidney): 4.3 ± 2.7
- tissue to tissue ratio at 1 h (in vivo; [3]): 67.3 ± 44.1
- tissue to tissue ratio at 2 h (in vivo; [3]): 74.2 ± 55
- tissue to tissue ratio at 3 h (in vivo; [3]): 72.7 ± 89
- tissue to tissue ratio at 4 h (in vivo; [3]): 56.5 ± 21.7
- tissue to tissue ratio at 6 h (in vivo; [3]): 162 ± 270
- tissue to tissue ratio at 1 h (in vivo; Tumor-to-tissue ratio Liver): 8 ± 3.8
- tissue to tissue ratio at 2 h (in vivo; Tumor-to-tissue ratio Liver): 15.9 ± 8.9
- tissue to tissue ratio at 3 h (in vivo; Tumor-to-tissue ratio Liver): 13.1 ± 12
- tissue to tissue ratio at 4 h (in vivo; Tumor-to-tissue ratio Liver): 16.2 ± 8.6
- tissue to tissue ratio at 6 h (in vivo; Tumor-to-tissue ratio Liver): 16 ± 10.5
- tissue to tissue ratio at 1 h (in vivo; Tumor-to-tissue ratio Lungs): 4.5 ± 1.9
- tissue to tissue ratio at 2 h (in vivo; Tumor-to-tissue ratio Lungs): 13.1 ± 7.5
- tissue to tissue ratio at 3 h (in vivo; Tumor-to-tissue ratio Lungs): 11.4 ± 11.1
- tissue to tissue ratio at 4 h (in vivo; Tumor-to-tissue ratio Lungs): 13.5 ± 5.9
- tissue to tissue ratio at 6 h (in vivo; Tumor-to-tissue ratio Lungs): 20.2 ± 12.5
- tissue to tissue ratio at 1 h (in vivo; [4]): 18.6 ± 9.1
- tissue to tissue ratio at 2 h (in vivo; [4]): 27.7 ± 9.1
- tissue to tissue ratio at 3 h (in vivo; [4]): 35.5 ± 26
- tissue to tissue ratio at 4 h (in vivo; [4]): 22 ± 12.7
- tissue to tissue ratio at 6 h (in vivo; [4]): 47.2 ± 35.9
- tissue to tissue ratio at 1 h (in vivo; Tumor-to-tissue ratio Spleen): 10.7 ± 7.2
- tissue to tissue ratio at 2 h (in vivo; Tumor-to-tissue ratio Spleen): 26.6 ± 28.7
- tissue to tissue ratio at 3 h (in vivo; Tumor-to-tissue ratio Spleen): 16.3 ± 13.1
- tissue to tissue ratio at 4 h (in vivo; Tumor-to-tissue ratio Spleen): 26.1 ± 23.4
- tissue to tissue ratio at 6 h (in vivo; Tumor-to-tissue ratio Spleen): 17.4 ± 12.7
- tissue to tissue ratio at 1 h (in vivo; Tumor-to-tissue ratio Stomach): 36.7 ± 22.8
- tissue to tissue ratio at 2 h (in vivo; Tumor-to-tissue ratio Stomach): 52.8 ± 17.6
- tissue to tissue ratio at 3 h (in vivo; Tumor-to-tissue ratio Stomach): 73.6 ± 47.4
- tissue to tissue ratio at 4 h (in vivo; Tumor-to-tissue ratio Stomach): 56.9 ± 36
- tissue to tissue ratio at 6 h (in vivo; Tumor-to-tissue ratio Stomach): 112 ± 60.7
Compound: NC(=O)[C@H](CCCCNC(=O)CNC(=O)CCC(=O)NCCc1cnc[nH]1)NC(=O)[C@@H](Cc1ccc(O)cc1)NC(=O)[C@H](CCCCNC(=O)CNC(=O)CCC(=O)NCCc1cnc[nH]1)NC(=O)[C@H](Cc1ccccc1)NC(=O)CN1CCN(CC(=O)O)CCN(CC(=O)O)CCN(CC(=O)O)CC1 [Ga-67-IMP 241, metal not drawn] ({DOTA}-FK([Gly-Suc-NH(2-(imidazol-4-yl)ethyl)])[dY]K([Gly-Suc-NH(2-(imidazol-4-yl)ethyl)])-NH2)
- Clearance when given alone [2]: essentially clears completely within the first hour post-injection
